Data published in ChEMBL document CHEMBL1131938, “Leucine-phenylalanine dipeptide-based N-mesyloxysuccinimides: synthesis of all four stereoisomers and their assay against serine proteases” (Bioorg Med Chem Lett, 1999).

What was measured:
[1] = target: T1, Neutrophil elastase (Homo sapiens) (UniProt P08246); experiment: Inhibitory activity against human neutrophil elastase after 30 min incubation; parameters: concentration or dose not given beside the values
T1 sequence (whole entry): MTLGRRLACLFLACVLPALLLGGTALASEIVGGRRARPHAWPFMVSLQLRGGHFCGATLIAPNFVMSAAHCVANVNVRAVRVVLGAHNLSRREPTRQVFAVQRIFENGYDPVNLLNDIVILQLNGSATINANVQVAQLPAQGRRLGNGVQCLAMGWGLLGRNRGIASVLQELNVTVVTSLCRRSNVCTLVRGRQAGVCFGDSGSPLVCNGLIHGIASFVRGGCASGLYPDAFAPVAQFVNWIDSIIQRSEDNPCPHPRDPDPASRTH

[2] = target: Chymotrypsinogen A (Bos taurus) (UniProt P00766); experiment: Inhibitory activity against Chymotrypsinogen enzyme was determined
[3] = target: Chymotrypsinogen A (Bos taurus) (UniProt P00766); experiment: Inhibitory activity against Chymotrypsinogen was determined

SMILES: CCCCOC(=O)N[C@@H](CC(C)C)C(=O)N[C@]1(Cc2ccccc2)CC(=O)N(OS(C)(=O)=O)C1=O
- inhibition [1]: 48%
- k obs / 1 [2]: 180 M⁻¹ s⁻¹

SMILES: CC(=O)N[C@@H](CC(C)C)C(=O)N[C@@]1(Cc2ccccc2)CC(=O)N(OS(C)(=O)=O)C1=O
- k obs / 1 [3]: 28 M⁻¹ s⁻¹
- inhibition [1]: 24%

SMILES: CC(=O)N[C@]1(Cc2ccccc2)CC(=O)N(OS(C)(=O)=O)C1=O
- inhibition [1]: 56%
- k obs / 1 [2]: 217 M⁻¹ s⁻¹

SMILES: CC(=O)N[C@H](CC(C)C)C(=O)N[C@]1(Cc2ccccc2)CC(=O)N(OS(C)(=O)=O)C1=O
- inhibition [1]: 72%
- k obs / 1 [2]: 244 M⁻¹ s⁻¹

SMILES: CC(=O)N[C@@H](CC(C)C)C(=O)N[C@]1(Cc2ccccc2)CC(=O)N(OS(C)(=O)=O)C1=O
- inhibition [1]: 63%
- k obs / 1 [2]: 170 M⁻¹ s⁻¹

SMILES: CC(=O)N[C@H](CC(C)C)C(=O)N[C@@]1(Cc2ccccc2)CC(=O)N(OS(C)(=O)=O)C1=O
- inhibition [1]: 6%
- k obs / 1 [2]: 9 M⁻¹ s⁻¹
